Results: patent US20240018470A1, “METHOD OF MANIPULATING PLURIPOTENCY IN CELLS” (YALE UNIVERSITY, priority 2022, published 2024)

Tested on: Xenopus embryos
Assay: Whole mount in situ hybridization for germ layer and pluripotency markers
Assay type: in vivo, Xenopus tropicalis
Excerpt: In order to generate a full-length antisense probe for X. tropicalis kcnh6, kcnh6 cDNA was cloned from stage 45 tadpole whole mRNA using primers […] ID NO:10) and […] ID NO:11) (XM_012952904.1). It was noted that kcnh6 had been misannotated as kcnh2 in the v7.1 model of the X. tropicalis genome (The present study used NCBI Annotation XP_012808358.2 to identify KCNH6). […] GRPs were dissected post fixation and prior to dehydration to detect dandy. To detect putative gene expression in the prospective endoderm (mixer, vegT, kcnh6) gastrula stage embryos were bisected to facilitate better probe access. Briefly, whole mount in situ hybridization of digoxigenin-labeled antisense probes was performed overnight, the labelled embryos were then washed, incubated with anti-digoxigenin-AP Fab fragments (Roche 11093274910), and signal was detected using BM-purple (Roche 11442074001). Normal embryonic medium is 1/9× modified Ringer's (MR) containing 11 mM NaCl, 0.2 mM KCl, 0.2 mM CaCl2), 0.1 mM Mg2Cl and 0.55 mM HEPES. […] For extracellular K^+ manipulations, the KCl concentration in 1/9×MR was modified from 0.2 mM (normal) to 20 mM (high) or 0 mM (low). […] For rapamycin, the present study created a standard stock solution of 50 mg/ml in DMSO. The stock solution was diluted 1:2500 in the appropriate embryonic media (final 20 μg/ml). […] In experiments where embryos were evaluated for phenotypes and scored (gastrulation, left-right patterning, in situ hybridizations) the present study carried out three to five biological replicates and Fisher's exact test to evaluate statistical significance. The animal cap experiment was performed twice with a total score of four to eight animal caps per experiment. […] For whole cell electrophysiological recordings, three to five embryos (two cells each) were examined for their membrane potential and statistical significance was tested by student's t-test. Graphs were designed using GraphPad Prism software. Models were created with BioRender.com.

“kcnh6 MO: kcnh6 translation blocking morpholino oligonucleotide, 5′-GGTCCTCGAAGTTTAGGATAAACAT-3′, SEQ ID NO:1 (all phosphorodiamidate morpholino (PMO))” was tested, and the “embryos with myf5 lost” value (kcnh6 depleted embryos treated only with DMSO) was 35±5% and the “embryos with absent ectodermin” value (kcnh6 depleted embryos treated with DMSO) was 51±6%.
